Target: T1, Human GLP-1 receptor (Homo sapiens, UniProt P43220)
T1 construct: expressed in transfected cells
Assay: Measurement of GLP-1 receptor agonist activity (cAMP assay)
Format: cell-based
Conditions: for Emax: CHO-K1, hGLP-1R/CHO-K1 cells, cAMP, 100% = human GLP-1 (7-36) at 2 nM, 0% = DMSO only, read-out: Emax(%); for EC50: hGLP-1R/CHO-K1 cells, cAMP increase, 37° C. 1 hour
Summary of the method: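 Agonism measured as cAMP accumulation by time-resolved FRET immunoassay in CHO-K1 cells stably expressing human GLP-1 receptor. Cells treated for 1 h at 37 °C with compound and forskolin (400 μM stock), in buffer containing the PDE inhibitors IBMX (0.1 mM) and RO20-1724 (0.2 mM).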

T1 sequence (P43220 24-463): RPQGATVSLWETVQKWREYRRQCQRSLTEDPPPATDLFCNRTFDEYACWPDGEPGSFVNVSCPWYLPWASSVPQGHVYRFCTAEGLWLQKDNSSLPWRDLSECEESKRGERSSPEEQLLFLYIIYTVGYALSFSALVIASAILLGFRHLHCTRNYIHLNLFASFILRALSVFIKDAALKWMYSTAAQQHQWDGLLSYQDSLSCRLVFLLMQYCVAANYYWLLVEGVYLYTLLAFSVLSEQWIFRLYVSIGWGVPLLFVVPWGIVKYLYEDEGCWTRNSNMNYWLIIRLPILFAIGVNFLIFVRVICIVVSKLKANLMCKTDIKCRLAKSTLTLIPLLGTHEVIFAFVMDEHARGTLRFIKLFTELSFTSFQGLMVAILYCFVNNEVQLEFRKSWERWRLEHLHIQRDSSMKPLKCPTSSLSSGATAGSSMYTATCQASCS

Row | SMILES | Emax [%] | EC50 [nM]
1 | CCn1ccc(COc2cc3c(cc2C(F)(F)F)CCN(Cc2nc4ccc(C(=O)O)cc4n2C[C@@H]2CCO2)C3)n1 [Compound I-148] | 95 | 32.5
2 | O=C(O)c1ccc2nc(CN3CCc4cc(C(F)(F)F)c(OCc5ccn(C(F)F)n5)cc4C3)n(C[C@@H]3CCO3)c2c1 [Compound I-150] | 92 | 18.3
3 | O=C(O)c1ccc2nc(CN3CCc4cc(C(F)(F)F)c(OCc5ccn(CC(F)(F)F)n5)cc4C3)n(C[C@@H]3CCO3)c2c1 [Compound I-151] | 93.7 | 124
4 | O=C(O)c1ccc2nc(CN3CCc4cc(C(F)(F)F)c(OCc5ccccc5OC(F)F)cc4C3)n(C[C@@H]3CCO3)c2c1 [Compound I-152] | 111 | 5.88
5 | N#Cc1cc(Cl)ccc1COc1cc2c(cc1C(F)(F)F)CCN(Cc1nc3ccc(C(=O)O)cc3n1C[C@@H]1CCO1)C2 [Compound I-157] | 109 | 4.29
6 | O=C(O)c1ccc2nc(CN3CCc4cc(C(F)(F)F)c(OCc5c(F)cccc5Cl)cc4C3)n(C[C@@H]3CCO3)c2c1 [Compound I-158] | 94 | 16.3
7 | Cc1cc(F)cc(C)c1COc1cc2c(cc1C(F)(F)F)CCN(Cc1nc3ccc(C(=O)O)cc3n1C[C@@H]1CCO1)C2 [Compound I-159] | 92.3 | 13.3
8 | C[C@H]1c2cc(OCc3ccc(Cl)cc3)c(C(F)(F)F)cc2CCN1Cc1nc2ccc(C(=O)O)cc2n1C[C@@H]1CCO1 [Compound I-161] | 110 | 1.28
9 | C[C@H]1c2cc(OCc3ccccc3Cl)c(C(F)(F)F)cc2CCN1Cc1nc2ccc(C(=O)O)cc2n1C[C@@H]1CCO1 [Compound I-165] | 103 | 2.74
10 | C[C@H]1c2cc(OCc3ccc(Cl)cc3Cl)c(C(F)(F)F)cc2CCN1Cc1nc2ccc(C(=O)O)cc2n1C[C@@H]1CCO1 [Compound I-167] | 102 | 0.707
11 | C[C@H]1c2cc(OCc3cc(F)c(Cl)cc3F)c(C(F)(F)F)cc2CCN1Cc1nc2ccc(C(=O)O)cc2n1C[C@@H]1CCO1 [Compound I-169] | 101 | 1.21
12 | COc1ccc(COc2cc3c(cc2C(F)(F)F)CCN(Cc2nc4ccc(C(=O)O)nc4n2C[C@@H]2CCO2)[C@H]3C)cc1 [Compound I-175] | 101 | 3.58
13 | Cc1csc(COc2cc3c(cc2C(F)(F)F)CCN(Cc2nc4ccc(C(=O)O)nc4n2C[C@@H]2CCO2)[C@H]3C)n1 [Compound I-177] | 107 | 3.09
14 | C[C@H]1c2cc(OCc3ccc(Cl)cc3)c(C(F)(F)F)cc2CCN1Cc1nc2ccc(C(=O)O)nc2n1C[C@@H]1CCO1 [Compound I-178] | 111 | 1.97
15 | C[C@H]1c2cc(OCc3ccc(C4CC4)cc3)c(C(F)(F)F)cc2CCN1Cc1nc2ccc(C(=O)O)nc2n1C[C@@H]1CCO1 [Compound I-180] | 97.3 | 8.94
16 | C[C@H]1c2cc(OCc3ccc(F)cc3)c(C(F)(F)F)cc2CCN1Cc1nc2ccc(C(=O)O)nc2n1C[C@@H]1CCO1 [Compound I-187] | 105 | 4.2
17 | C[C@H]1c2cc(OCc3c(F)cc(F)cc3F)c(C(F)(F)F)cc2CCN1Cc1nc2ccc(C(=O)O)nc2n1C[C@@H]1CCO1 [Compound I-188] | 90.3 | 1.79
18 | C[C@H]1c2cc(OCc3ccc(Cl)cc3)c(C(F)(F)F)cc2CCN1Cc1nc2ccc(C(=O)O)c(F)c2n1C[C@@H]1CCO1 [Compound I-193] | 115 | 0.73
19 | C[C@H]1c2cc(OCc3ccc(C4CC4)cc3)c(C(F)(F)F)cc2CCN1Cc1nc2ccc(C(=O)O)c(F)c2n1C[C@@H]1CCO1 [Compound I-195] | 96.3 | 3.29
20 | C[C@H]1c2cc(OCc3ccc(F)cc3F)c(C(F)(F)F)cc2CCN1Cc1nc2ccc(C(=O)O)c(F)c2n1C[C@@H]1CCO1 [Compound I-198] | 128 | 1.17

Continued by falling EC50, values first:

Row | Emax [%] | EC50 [nM] | SMILES
21 | 93.7 | 101 | CC(C)n1ccc(COc2cc3c(cc2C(F)(F)F)CCN(Cc2nc4ccc(C(=O)O)cc4n2C[C@@H]2CCO2)C3)n1 [Compound I-149]
22 | 97.7 | 38.4 | O=C(O)c1ccc2nc(CN3CCc4cc(C(F)(F)F)c(OCc5ccccc5F)cc4C3)n(C[C@@H]3CCO3)c2c1 [Compound I-154]
23 | 89 | 36.8 | O=C(O)c1ccc2nc(CN3CCc4cc(C(F)(F)F)c(OCc5ccccc5)cc4C3)n(C[C@@H]3CCO3)c2c1 [Compound I-156]
24 | 93.7 | 25.9 | O=C(O)c1ccc2nc(CN3CCc4cc(C(F)(F)F)c(OCc5c(F)cccc5F)cc4C3)n(C[C@@H]3CCO3)c2c1 [Compound I-155]
25 | 131 | 10.6 | C[C@H]1c2cc(OCc3ccc(C4CC4)cc3)c(C(F)(F)F)cc2CCN1Cc1nc2ccc(C(=O)O)cc2n1C[C@@H]1CCO1 [Compound I-163]
26 | 104 | 5.34 | COc1cc(F)c(COc2cc3c(cc2C(F)(F)F)CCN(Cc2nc4ccc(C(=O)O)cc4n2C[C@@H]2CCO2)C3)c(F)c1 [Compound I-153]
27 | 98 | 4.75 | C[C@H]1c2cc(OCc3ccc(OC(F)F)cc3F)c(C(F)(F)F)cc2CCN1Cc1nc2ccc(C(=O)O)nc2n1C[C@@H]1CCO1 [Compound I-184]
28 | 126 | 3.31 | C[C@H]1c2cc(OCc3ccccc3Cl)c(C(F)(F)F)cc2CCN1Cc1nc2ccc(C(=O)O)nc2n1C[C@@H]1CCO1 [Compound I-182]
29 | 111 | 3.28 | C[C@H]1c2cc(OCc3ccc(C#N)cc3F)c(C(F)(F)F)cc2CCN1Cc1nc2ccc(C(=O)O)nc2n1C[C@@H]1CCO1 [Compound I-186]
30 | 98 | 2.54 | C[C@H]1c2cc(OCc3ccc(F)cc3F)c(C(F)(F)F)cc2CCN1Cc1nc2ccc(C(=O)O)nc2n1C[C@@H]1CCO1 [Compound I-183]
31 | 98.7 | 2.37 | COc1ccc(COc2cc3c(cc2C(F)(F)F)CCN(Cc2nc4ccc(C(=O)O)cc4n2C[C@@H]2CCO2)[C@H]3C)cc1 [Compound I-171]
32 | 102 | 2.3 | Cc1csc(COc2cc3c(cc2C(F)(F)F)CCN(Cc2nc4ccc(C(=O)O)cc4n2C[C@@H]2CCO2)[C@H]3C)n1 [Compound I-173]
33 | 104 | 2.24 | C[C@H]1c2cc(OCc3ccc(OC(F)F)cc3F)c(C(F)(F)F)cc2CCN1Cc1nc2ccc(C(=O)O)cc2n1C[C@@H]1CCO1 [Compound I-168]
34 | 106 | 2.2 | C[C@H]1c2cc(OCc3cc(F)c(Cl)cc3F)c(C(F)(F)F)cc2CCN1Cc1nc2ccc(C(=O)O)nc2n1C[C@@H]1CCO1 [Compound I-185]
35 | 98.3 | 2.12 | C[C@H]1c2cc(OCc3ccc(Cl)cn3)c(C(F)(F)F)cc2CCN1Cc1nc2ccc(C(=O)O)nc2n1C[C@@H]1CCO1 [Compound I-176]
36 | 99 | 1.88 | Cc1ccc(COc2cc3c(cc2C(F)(F)F)CCN(Cc2nc4ccc(C(=O)O)nc4n2C[C@@H]2CCO2)[C@H]3C)cc1 [Compound I-179]
37 | 109 | 1.58 | C[C@H]1c2cc(OCc3ccc(Cl)cc3F)c(Cl)cc2CCN1Cc1nc2ccc(C(=O)O)cc2n1C[C@@H]1CCO1 [Compound I-174]
38 | 106 | 1.37 | Cc1ccc(COc2cc3c(cc2C(F)(F)F)CCN(Cc2nc4ccc(C(=O)O)cc4n2C[C@@H]2CCO2)[C@H]3C)cc1 [Compound I-162]
39 | 119 | 1.33 | C[C@H]1c2cc(OCc3ccccc3Cl)c(C(F)(F)F)cc2CCN1Cc1nc2ccc(C(=O)O)c(F)c2n1C[C@@H]1CCO1 [Compound I-197]
40 | 120 | 1.24 | C[C@H]1c2cc(OCc3ccc(C#N)cc3F)c(C(F)(F)F)cc2CCN1Cc1nc2ccc(C(=O)O)cc2n1C[C@@H]1CCO1 [Compound I-170]
41 | 111 | 1.23 | C[C@H]1c2cc(OCc3ccc(F)cc3F)c(C(F)(F)F)cc2CCN1Cc1nc2ccc(C(=O)O)cc2n1C[C@@H]1CCO1 [Compound I-166]
42 | 123 | 1.2 | Cc1csc(COc2cc3c(cc2C(F)(F)F)CCN(Cc2nc4ccc(C(=O)O)c(F)c4n2C[C@@H]2CCO2)[C@H]3C)n1 [Compound I-192]
43 | 109 | 1.08 | COc1ccc(COc2cc3c(cc2C(F)(F)F)CCN(Cc2nc4ccc(C(=O)O)c(F)c4n2C[C@@H]2CCO2)[C@H]3C)cc1 [Compound I-190]
44 | 113 | 0.946 | C[C@H]1c2cc(OCc3ccc(Cl)cn3)c(C(F)(F)F)cc2CCN1Cc1nc2ccc(C(=O)O)cc2n1C[C@@H]1CCO1 [Compound I-172]
45 | 111 | 0.741 | Cc1ccc(COc2cc3c(cc2C(F)(F)F)CCN(Cc2nc4ccc(C(=O)O)c(F)c4n2C[C@@H]2CCO2)[C@H]3C)cc1 [Compound I-194]
46 | 130 | 0.644 | C[C@H]1c2cc(OCc3ccc(Cl)cn3)c(C(F)(F)F)cc2CCN1Cc1nc2ccc(C(=O)O)c(F)c2n1C[C@@H]1CCO1 [Compound I-191]
47 | 116 | 0.374 | COc1cc(Cl)ccc1COc1cc2c(cc1C(F)(F)F)CCN(Cc1nc3ccc(C(=O)O)nc3n1C[C@@H]1CCO1)[C@H]2C [Compound I-181]
48 | 104 | 0.302 | COc1cc(Cl)ccc1COc1cc2c(cc1C(F)(F)F)CCN(Cc1nc3ccc(C(=O)O)cc3n1C[C@@H]1CCO1)[C@H]2C [Compound I-164]
49 | 106 | 0.136 | COc1cc(Cl)ccc1COc1cc2c(cc1C(F)(F)F)CCN(Cc1nc3ccc(C(=O)O)c(F)c3n1C[C@@H]1CCO1)[C@H]2C [Compound I-196]
50 | 122 | 0.0651 | COc1cc(C(=O)O)cc2c1nc(CN1CCc3cc(C(F)(F)F)c(OCc4ccc(Cl)cc4F)cc3[C@@H]1C)n2C[C@@H]1CCO1 [Compound I-189]

From patent publication US20240217966A1, “PHARMACEUTICAL COMPOSITION CONTAINING GLP-1 RECEPTOR AGONIST HAVING FUSED RING” (Shionogi & Co., Ltd., priority 2021, published 2024)
